Experiments:
MCF-7 cells [1] = assay: Annexin V/PI apoptosis assay by flow cytometry; format: cell-based, human; settings: Figure 6A, in comparison with control
Experimental: The ability of drugs to induce cancer cell apoptosis is a key indicator of their chemotherapeutic potential. […] To examine the apoptotic effects of E10, an Annexin V-FITC dual-staining assay (with flow cytometric analysis) was performed. As shown in Figure 3A (also Figure 3C), treatment with increasing concentrations of E10 induced a marked elevation in apoptotic cell populations.
Autophagy has bidirectional regulation effects on cell survival. To confirm the role of autophagy in E10-induced cell death, 3-MA was used as an autophagy blocker.
MCF-7 cells were seeded at a density of 6 × 10^5 cells per well in 12-well plates and incubated in a 37 °C, 5% CO2 incubator for 24 h. After treatment with different concentrations of compound E10, the cells were washed with PBS two times, collected by trypsin enzymic digestion and centrifugation, and the collected cells were subsequently stained with 5 µL Annexin V-APC (YSRIBIO-C1084) and 5 µL PI for 10 min in the dark conditions. The cell apoptosis was measured with the flow cytometry (BD), and the data were analyzed by flowjo 10.6 software.

MCF-7 cells [2] = assay: Monodansylcadaverine (MDC) staining assay for autophagy; format: cell-based, human; settings: 24 h, compared with control; 3-MA as co-treatment with E10
Experimental: To investigate whether E10 induced autophagy in MCF-7 cells, we performed Monodansylcadaverine (MDC) staining, transmission electron microscopy (TEM), and Western blot analysis to evaluate autophagy-related markers. MDC is a fluorescent probe commonly used to detect the formation of autophagic vacuoles, as it specifically labels autophagosomes.
MDC is a staining indicator for the formation of autophagosome. MCF-7 cells were seeded at a density of 2 × 10^5 cells per well in 6-well plates. MCF-7 cells were inoculated into a 6-well plate, and the cells were treated with E10 for 24 h. The treated cells were washed twice with buffer and then stained with MDC (Beijing Solarbio Science & Technology Co., Ltd., Beijing, China) for 40 min. The cells were then detected under a fluorescence microscope (Carl Zeiss, Jena, Germany).

MCF-7 xenograft = assay: Zebrafish MCF-7 xenograft model; format: in vivo; settings: 48 h, compared with PBS control; Dox 1.0 μM
Text: Zebrafish have become a well-established model for both anticancer drug discovery and toxicity evaluation. This animal model affords several unique advantages, including rapid development, optical transparency, and genetic conservation with humans. These features make zebrafish particularly suitable for high-throughput in vivo screening and mechanistic studies in oncology research. Tumor burden in zebrafish xenografts is commonly quantified from Dil/DiI-labeled fluorescence area or integrated intensity, which correlates with cell number and treatment response. To assess the in vivo antitumor efficacy of compound E10, we established a zebrafish xenograft model. Briefly, CM-Dil-labeled MCF-7 cells (showing red fluorescence) were microinjected into the yolk sacs of zebrafish embryos. The xenografted zebrafish were then randomly assigned into five groups: three E10-treatment groups (0.5 µg/mL, 1.0 µg/mL, and 2.0 µg/mL), a Doxorubicin (Dox) positive control group, and a PBS negative control group.
All experimental procedures were approved by ACUC of Shandong Academy of Sciences (Animal Care and Use Committee). Wild-type AB of zebrafish were obtained from Biology Institute, Qilu University of Technology. The embryos were incubated in special embryonic medium (0.17 mM KCl, 5.0 mM NaCl, 0.4 mM CaCl2, and 0.16 mM MgSO4) at 28 °C. 48 h-old zebrafish embryos were microinjected with CM-Dil labelled MCF-7 cells under stereomicroscopy. After injection, zebrafish embryos with the same injection spot were randomly planted on a six-well plate. These xenograft zebrafish were sorted into four groups of about 15–20 zebrafish each and treated with 0.5, 1.0, 2.0 μg/mL of compound E10 for 48 h, 1.0 μM doxorubicin as a positive control group. After treatment, the fluorescence intensity of living cells was examined with laser confocal microscopy (Olympus, Tokyo, Japan).

SMILES | cell apoptosis with or without autophagy blocker 3-MA (MCF-7 cells [1]) | MDC staining, autophagosome formation (MCF-7 cells [2]) | fluorescence intensity of xenograft (MCF-7 xenograft)
Cn1cnc(N)c2ncnc1-2 [3-MA, 3-methyladenine, reference compound] | reversed E10-induced apoptosis | marked reduction in fluorescence intensity | 
COc1cccc2c1C(=O)c1c(O)c3c(c(O)c1C2=O)C[C@@](O)(C(=O)CO)C[C@@H]3O[C@H]1C[C@H](N)[C@H](O)[C@H](C)O1 [Dox, Doxorubicin, reference compound] |  |  | notable reduction in fluorescence intensity

Reference: paper PMC12526212, “Novel Isolongifolenone-Based Caprolactam Derivatives as Potential Anticancer Agents via the p53/mTOR/Autophagy Pathway” (Molecules, 2025)
